Values of other authors, collected in article PMC10360060, “Electroosmotic Perfusion, External Microdialysis: Simulation and Experiment” (ACS Chemical Neuroscience, 2023).
Where two headings read alike, the source gives them in different places.

Assays:
[1] = saline solution, parameter used in simulations, ref Li and Carr, Scheibel, Häckel et al.[65]−[67]
From the text: Table 1 List of Parameters Used in Simulations | column: magnitude

[2] = system: insulin regulated aminopeptidase (IRAP); details: perfusion of inhibitor in rat neocortex in vivo, online capillary LC-MS2
From the text: Following our discovery that brain tissue has a significant ζ-potential,[36] we learned how to use this property of brain tissue to infuse solutes into brain and organotypic hippocampal slice cultures (OHSCs) using controlled electrical current[37],[38] and to infuse substrates of known ectoenzymes and determine information about these enzymes in OHSCs[39]−[43] and in vivo.[44] For the in vivo work, direct laser writing by two-photon polymerization was used to manufacture a device (Supporting Information, section S3). A pointed, narrow capillary adjacent to a microdialysis probe was the source ...

[3] = 37 °C (body temperature, tissue)

Row | inhibition of YGGFL hydrolysis [2] | Compound | Diffusion coefficients ([1]; 22 °C (lab temperature)) | Diffusion coefficients [1, 3]
1 |  | YGGFL [leucine enkephalin, natural neuropeptide substrate infused through tissue] | 4.2 × 10^–10 m^2/s | 5.5 × 10^–10 m^2/s
2 | dose-dependent inhibition | CCOC(=O)C1=C(NC(C)=O)Oc2cc(O)ccc2C1c1cccnc1 (centres unmarked) [HFI-419] |  | 
3 |  | GGFL [hydrolysis product of YGGFL] | 5.0 × 10^–10 m^2/s | 6.5 × 10^–10 m^2/s
